Measurements from the supplement of paper PMC4862054.

Tests used:
Details in all cases: incubation time: 72 h
MDA-MB-436 [1] = assay: normalised response (% of control), CellTox Green; higher = less cell death (100 = DMSO, 0 = benzethonium chloride kill control)
In short: (§1)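 For each plate, 0.1 % DMSO was set to 100 and a positive kill control to 0. Breast cancer cell lines (20 µl suspension) were seeded into 384-well plates already holding compound at 5 concentrations in 10-fold steps over a 10,000-fold range chosen per compound, and incubated for 72 h. CellTox Green fluorescence at 485/520 nm was read before CellTiter-Glo luminescence, which followed 10 min at room temperature. Each value is the normalised signal at one concentration.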

HCC1143 [2] = assay: as above
In short: as §1

MDA-MB-453 [3] = assay: as above
In short: as §1

MFM-223 [4] = assay: as above
In short: as §1

CAL-148 [5] = assay: as above
In short: as §1

CAL-85-1 [6] = assay: as above
In short: as §1

BT-474 [7] = assay: as above
In short: as §1

MDA-MB-468 [8] = assay: as above
In short: as §1

MDA-MB-231 [9] = assay: as above
In short: as §1

HDQ-P1 [10] = assay: as above
In short: as §1

Hs578T [11] = assay: as above
In short: as §1

HCC1599 [12] = assay: as above
In short: as §1

MCF-10A [13] = assay: as above
In short: as §1

CAL-120 [14] = assay: as above
In short: as §1

HCC1937 [15] = assay: as above
In short: as §1

CAL-51 [16] = assay: as above
In short: as §1

BT-549 [17] = assay: as above
In short: as §1

DU-4475 [18] = assay: as above
In short: as §1

MDA-MB-436 [19] = assay: normalised response (% of control), CellTiter-Glo; higher = more viable cells (100 = DMSO, 0 = benzethonium chloride kill control)
Experimental: (§2)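 DSRT, 72 h incubation, CellTox Green / CellTiter-Glo readout. Signal is normalised to DMSO and benzethonium chloride controls. Value is the normalised response at the highest dose.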

HCC1143 [20] = assay: as above
Experimental: as §2

MDA-MB-453 [21] = assay: as above
Experimental: as §2

SK-BR-3 = assay: as above
Experimental: as §2

MFM-223 [22] = assay: as above
Experimental: as §2

CAL-148 [23] = assay: as above
Experimental: as §2

CAL-85-1 [24] = assay: as above
Experimental: as §2

BT-474 [25] = assay: as above
Experimental: as §2

MDA-MB-468 [26] = assay: as above
Experimental: as §2

MDA-MB-231 [27] = assay: as above
Experimental: as §2

HDQ-P1 [28] = assay: as above
Experimental: as §2

Hs578T [29] = assay: as above
Experimental: as §2

HCC1599 [30] = assay: as above
Experimental: as §2

MCF-10A [31] = assay: as above
Experimental: as §2

CAL-120 [32] = assay: as above
Experimental: as §2

HCC1937 [33] = assay: as above
Experimental: as §2

CAL-51 [34] = assay: as above
Experimental: as §2

BT-549 [35] = assay: as above
Experimental: as §2

DU-4475 [36] = assay: as above
Experimental: as §2

Structure (SMILES)	normalised response (MDA-MB-436 [1])	normalised response (HCC1143 [2])	normalised response (MDA-MB-453 [3])	normalised response (MFM-223 [4])	normalised response (CAL-148 [5])	normalised response (CAL-85-1 [6])	normalised response (BT-474 [7])	normalised response (MDA-MB-468 [8])	normalised response (MDA-MB-231 [9])	normalised response (HDQ-P1 [10])	normalised response (Hs578T [11])	normalised response (HCC1599 [12])	normalised response (MCF-10A [13])	normalised response (CAL-120 [14])	normalised response (HCC1937 [15])	normalised response (CAL-51 [16])	normalised response (BT-549 [17])	normalised response (DU-4475 [18])	normalised response (MDA-MB-436 [19])	normalised response (HCC1143 [20])	normalised response (MDA-MB-453 [21])	normalised response (SK-BR-3)	normalised response (MFM-223 [22])	normalised response (CAL-148 [23])	normalised response (CAL-85-1 [24])	normalised response (BT-474 [25])	normalised response (MDA-MB-468 [26])	normalised response (MDA-MB-231 [27])	normalised response (HDQ-P1 [28])	normalised response (Hs578T [29])	normalised response (HCC1599 [30])	normalised response (MCF-10A [31])	normalised response (CAL-120 [32])	normalised response (HCC1937 [33])	normalised response (CAL-51 [34])	normalised response (BT-549 [35])	normalised response (DU-4475 [36])
COc1ccccc1S(=O)(=O)Nc1ccc2c(c1)CN(C)C(=O)N2 [PFI-1] (10000 nM)	101%	104%	94.5%	103%	91.6%	65.1%	105%	193%	117%	103%	135%	104%	125%	104%	120%	83.5%	108%	90.2%	80%	67.1%	42.8%	64.3%	59.5%	82%	46.2%	64.6%	65.4%	66.8%	65.2%	41.6%	56.6%	54.1%	75.8%	74.1%	56.9%	44.5%	71.8%
Cn1c(=O)n(-c2ccc(C(C)(C)C#N)cc2)c2c3cc(-c4cnc5ccccc5c4)ccc3ncc21 [Dactolisib] (1000 nM)	112%	130%	104%	28.8%	-65%	64.6%	101%	170%	126%	115%	101%	107%	87.3%	104%	45.6%	81.3%	112%	102%	57%	37.5%	37.9%	27.2%	42.3%	33.1%	43%	61.8%	31.5%	51.3%	52.4%	33.9%	82%	52.3%	26.2%	58%	23.5%	25.9%	30.4%
C/C(=C\c1csc(C)n1)[C@@H]1C[C@@H]2O[C@]2(C)CCC[C@H](C)[C@H](O)[C@@H](C)C(=O)C(C)(C)[C@@H](O)CC(=O)O1 [Patupilone] (1000 nM)	78.4%	53.7%	96.4%	55.5%	52.6%	-11.4%	52.6%	97.4%	-10.5%	93.3%	-68.9%	92.5%	20.1%	87.5%	103%	41.2%	74.4%	100%	31.5%	31.3%	53.2%	11.7%	47.4%	54.1%	20.7%	36.8%	36%	29.8%	62.4%	12.2%	25.3%	41.5%	58.4%	74%	25.4%	18.5%	49.2%
C[C@]12CC[C@H](O)CC1=CC[C@@H]1[C@@H]2CC[C@]2(C)C(c3cccnc3)=CC[C@@H]12 [Abiraterone] (5000 nM)	111%	107%	110%	101%	87.5%	77.8%	99.7%	151%	122%	62.7%	116%	113%	76.5%	98%	120%	96.6%	128%	111%	100%	97.1%	112%	104%	103%	104%	112%	97%	99.3%	101%	104%	102%	107%	109%	103%	97.7%	98.4%	96.4%	99.6%
CN(C)C[C@@H]1CCn2cc(c3ccccc32)C2=C(C(=O)NC2=O)c2cn(c3ccccc23)CCO1 [Ruboxistaurin] (10000 nM)	-6.73%	103%	9.28%	73.5%	10.5%	-82.9%	-10.6%	-88%	-85%	26.2%	62.9%	91.6%	54.2%	76.3%	33%	-50.2%	30.4%	92.1%	3.33%	48.1%	0.01%	-0.11%	34.9%	0.12%	1.43%	4.02%	1.42%	0.34%	35%	70.6%	78.9%	42.6%	55.2%	38.5%	7.88%	10.1%	62.1%
O=C(O)CCCc1ccc(N(CCCl)CCCl)cc1 [Chlorambucil] (10000 nM)	66.2%	102%	102%	99.2%	95.3%	82.5%	99.8%	141%	104%	104%	124%	105%	83%	102%	105%	81.7%	78.8%	98.1%	81.3%	96.9%	123%	101%	108%	103%	96.2%	96%	94.1%	97.6%	101%	103%	89.3%	97.3%	100%	94.9%	117%	91.9%	96.9%
CC(C)c1c(C(=O)Nc2ccccc2)c(-c2ccccc2)c(-c2ccc(F)cc2)n1CC[C@@H](O)C[C@@H](O)CC(=O)O [Atorvastatin] (10000 nM)	83%	101%	88%	101%	99.2%	86.1%	104%	121%	-37.9%	85.6%	7.6%	103%	1.75%	45.3%	92.4%	-23.5%	102%	98%	71.4%	55.3%	89.7%	79.8%	76.1%	94.8%	52.7%	11.1%	19.1%	3.78%	44%	37.8%	83.4%	4.77%	47.4%	68.3%	21.2%	70%	87.4%
NS(=O)(=O)OC[C@@H]1C[C@@H](n2ccc3c(N[C@H]4CCc5ccccc54)ncnc32)C[C@@H]1O [Pevonedistat] (10000 nM)	28.2%	87.8%	95.5%	99%	90.7%	53.7%	104%	56.6%	100%	90.5%	91%	72.6%	95.7%	97%	107%	-20.5%	78.3%	73.8%	21%	33.9%	66.2%	30.4%	49.9%	123%	39.7%	45.5%	32.9%	46%	72.6%	60.1%	18.2%	91.2%	47.8%	60.3%	10%	27%	0.22%
